Results: patent publication US20040077754A1, “Dental materials based on acrylic-ester phosphonic acids” (priority 2002, published 2004)

Details: 20% solution in D2O/EtOH-d6 (1:1), stabilized with 200 ppm 2,6-di-tbutyl-4-methylphenol, stored at 37° C., standing time 2 months
Description: In connection with the present invention, compounds which are stable in water or in mixtures of water and water-miscible solvents in a concentration of approx. 20 wt.-% and a pH value of approx. 2.0 at 37° C. for at least 6 weeks, i.e. hydrolyze to less than 1%, are described as hydrolysis-stable.
A 20% solution of MAPA, stabilized with 200 ppm 2,6-di-tbutyl-4-methylphenol, was prepared in D2O/EtOH-d6 (1:1), stored at 37° C. and ^1H-NMR-spectroscopically examined. After a standing time of 2 months, no changes in the ^1H-NMR-spectrum were able to be detected.

## C=C(COCCP(=O)(O)O)C(=O)Oc1c(C)cc(C)cc1C [MAPA]
  Hydrolysis stability: changes in the 1H-NMR spectrum: no changes
